Results on 14 sequences are retold here after patent US20200095296A1, “USE OF PEPTIDES AS BIOMARKERS IN THE DIAGNOSIS, CONFIRMATION AND TREATMENT OF A NEUROLOGICAL DISORDER AND TCR AND/OR HLA IMMUNOPROFILING IN NEURODEGENERATIVE DISEASE” (THE TRUSTEES OF COLUMBIA UNIVERSITY IN THE CITY OF NEW YORK, priority 2017, published 2020).

Where no end group is shown, it is not given here. [ ]: non-standard residue; d: D form. pT = C[C@@H](OP(=O)(O)O)[C@H](N)C(=O)O; pS = N[C@@H](COP(=O)(O)O)C(=O)O

The test has as its system PBMC. Briefly: IFNg/IL-5 dual ELISPOT after 14 day in vitro stimulation of PBMC with Tau peptides. It is filed as cell-based, human. The note with it: for PD % of Total Responders / PD Total SFC / PD Total Responders: PD donors; for % of total response / Average SFC per responder / Frequency of response / Total SFC per epitope: across all cohorts; for Total Responders / Total SFC: all three cohorts (PD, HC > 50, HC < 35); for HC < 35 Total Responders / HC < 35 Total SFC: healthy controls < 35 years old. An excerpt:
It was investigated whether T cell responses against Tau were detectable in the PD and healthy control (HC) donors. To this end, a panel of overlapping peptides spanning through the entire sequence of the Tau protein was synthesized. Since it is known that the Tau protein is post-translationally modified (mainly by phosphorylation), in several instances phosphorylated peptides were also synthesized. In all, 55 non-modified 16-mers overlapping by 8 and 14 modified 16-mers were synthesized.
PD: n=16, peptides tested 14-16 times; HC above 50 years old denominated as age-matched: n=11 (9-11 times) and HC below 35 years old (HC Young): n=13 (10-13 times).
These peptides were tested utilizing the following assay strategy. Briefly, PBMC from each donor were stimulated in vitro for 14 days as described (Hinz, D., 2015) with pools of 10 to 16 peptides each. After 14 days, the T cell cultures were assayed with IFNg/IL-5 dual ELISPOT assays […]. Positive pools were deconvoluted at day 17 to identify the specific individual epitopes recognized.

Where [1] appears, read: healthy controls > 50 years old.

“ADGKTKIATPRGAAPP (listed as Homo sapiens) [Tau 16-mer, start 145]”: the “PD/HC > 50 Ratio of % Responders” value turned out to be 1.0, the “PD/HC > 50 Ratio of Response” value amounted to 0.5, the “HC > 50 % of Total Responders” value amounted to 50.0% and the “PD % of Total Responders” value was determined as 50.0%. Further, the “% of total response” value is given as 1.5%, the “Average SFC per responder” value stood at 868 SFC, the Frequency of response was 11.3 and the “Total SFC per epitope” value turned out to be 5210 SFC. Also, for the setting “HC > 50, dominant epitopes”, the “HC > 50 Total SFC” value is 3577 SFC. The “PD Total SFC” value (dominant epitopes) was 1633 SFC.

Regarding “ATLADEVSASLAKQGL (listed as Homo sapiens) [Tau 16-mer, start 426]”, the “PD/HC > 50 Ratio of % Responders” value stood at 1.5, the “PD/HC > 50 Ratio of Response” value came to 0.8, the “HC > 50 % of Total Responders” value worked out at 40.0% and the “PD % of Total Responders” value is given as 60.0%. Also, the “% of total response” value turned out to be 1.4%, the “Average SFC per responder” value stood at 999 SFC, the Frequency of response was determined as 9.4 and the “Total SFC per epitope” value was found to be 4997 SFC. Moreover, the “HC > 50 Total SFC” value (HC > 50, dominant epitopes) is listed as 2803 SFC. In addition, the “PD Total SFC” value (dominant epitopes) stood at 2193 SFC.

For the sequence “DFKDRVQSKIGSLDNI (DFKDRVQSKIG[pS]LDNI; listed as Homo sapiens) [Tau 16-mer, start 345]”, the “PD/HC > 50 Ratio of % Responders” value was 0.7, the “PD/HC > 50 Ratio of Response” value was found to be 0.6, the “HC > 50 % of Total Responders” value came out at 60.0% and the “PD % of Total Responders” value is 40.0%. The “PD Total Responders” value is on record as 2, the “PD Total SFC” value is 2397 SFC, the “% of total response” value is 1.9% and the “Average SFC per responder” value is reported as 1345 SFC. Besides, the Frequency of response worked out at 9.4, the “Total SFC per epitope” value stood at 6727 SFC, the “Total Responders” value turned out to be 5 and the “Total SFC” value is given as 6727 SFC. For the same sequence, the “HC < 35 Total Responders” value is on record as 0 and the “HC < 35 Total SFC” value was 0 SFC. Also, the “HC > 50 Total SFC” value (HC > 50, dominant epitopes) is 4330 SFC. Where the note is “dominant epitopes”, the “PD Total SFC” value worked out at 2397 SFC. Also, under setting [1], the “HC > 50 Total Responders” value was 3 and the “HC > 50 Total SFC” value came to 4330 SFC.

As to DFKDRVQSKIGZLDNI, the “PD/HC > 50 Ratio of % Responders” value was 2.0, the “PD/HC > 50 Ratio of Response” value came to 3.7, the “HC > 50 % of Total Responders” value was determined as 28.6% and the “PD % of Total Responders” value was 57.1%. The “PD Total Responders” value was 4, the “PD Total SFC” value was 4490 SFC, the “% of total response” value is reported as 1.9% and the “Average SFC per responder” value is on record as 972 SFC. Besides, the Frequency of response is 13.2, the “Total SFC per epitope” value turned out to be 6807 SFC, the “Total Responders” value came out at 7 and the “Total SFC” value is given as 6807 SFC. Further, the “HC < 35 Total Responders” value is 1 and the “HC < 35 Total SFC” value is 1097 SFC. In addition, the “HC > 50 Total SFC” value (HC > 50, dominant epitopes) is listed as 1220 SFC. For the same sequence, the “PD Total SFC” value (dominant epitopes) is recorded as 4490 SFC. Under setting [1], the “HC > 50 Total Responders” value is reported as 2 and the “HC > 50 Total SFC” value stood at 1220 SFC.

“DRSGYSSPGSPGTPGS (DRSGYSSPG[pS]PG[pT]PGS; listed as Homo sapiens) [Tau 16-mer, start 193]”: the “PD Total Responders” value was 1, the “PD Total SFC” value was found to be 1175 SFC, the “Total Responders” value is given as 2 and the “Total SFC” value worked out at 1332 SFC. The “HC < 35 Total Responders” value is reported as 0 and the “HC < 35 Total SFC” value is reported as 0 SFC. Also, under setting [1], the “HC > 50 Total Responders” value stood at 1 and the “HC > 50 Total SFC” value is given as 157 SFC.

With DRSGYSSPGZPGXPGS, the “PD/HC > 50 Ratio of % Responders” value was 5.0, the “PD/HC > 50 Ratio of Response” value is reported as 7.3, the “HC > 50 % of Total Responders” value amounted to 11.1% and the “PD % of Total Responders” value amounted to 55.6%. Moreover, the “PD Total Responders” value was 5, the “PD Total SFC” value is 1360 SFC, the “% of total response” value turned out to be 1.6% and the “Average SFC per responder” value is 611 SFC. For the same sequence, the Frequency of response amounted to 17.0, the “Total SFC per epitope” value was 5499 SFC, the “Total Responders” value is given as 9 and the “Total SFC” value is reported as 5499 SFC. Besides, the “HC < 35 Total Responders” value was found to be 3 and the “HC < 35 Total SFC” value amounted to 3952 SFC. Besides, the “HC > 50 Total SFC” value (HC > 50, dominant epitopes) was determined as 187 SFC. Also, the “PD Total SFC” value (dominant epitopes) came to 1360 SFC. Under setting [1], the “HC > 50 Total Responders” value came to 1 and the “HC > 50 Total SFC” value is 187 SFC.

As to “GDTSPRHLSNVSSTGS (listed as Homo sapiens) [Tau 16-mer, start 401]”, the “PD/HC > 50 Ratio of % Responders” value is 0.3, the “PD/HC > 50 Ratio of Response” value is 0.6, the “HC > 50 % of Total Responders” value came to 50.0% and the “PD % of Total Responders” value is reported as 16.7%. The “% of total response” value is given as 1.1%, the “Average SFC per responder” value is 633 SFC, the Frequency of response was determined as 11.3 and the “Total SFC per epitope” value is reported as 3798 SFC. Besides, under “HC > 50, dominant epitopes”, the “HC > 50 Total SFC” value is listed as 1657 SFC. Also, the “PD Total SFC” value (dominant epitopes) was 997 SFC.

As to “GKVQIINKKLDLSNVQ (listed as Homo sapiens) [Tau 16-mer, start 273]”, the “PD/HC > 50 Ratio of % Responders” value is listed as 2.5, the “PD/HC > 50 Ratio of Response” value is listed as 3.3, the “HC > 50 % of Total Responders” value is given as 20.0% and the “PD % of Total Responders” value was found to be 50.0%. The “% of total response” value stood at 8.6%, the “Average SFC per responder” value is 1511 SFC, the Frequency of response was 37.7 and the “Total SFC per epitope” value was found to be 30211 SFC. Also, the “HC > 50 Total SFC” value (HC > 50, dominant epitopes) is listed as 5560 SFC. Besides, the “PD Total SFC” value (dominant epitopes) came out at 18290 SFC.

Turning to “GQKGQANATRIPAKTP (listed as Homo sapiens) [Tau 16-mer, start 161]”, the “PD/HC > 50 Ratio of % Responders” value amounted to 4.0, the “PD/HC > 50 Ratio of Response” value is given as 3.5, the “HC > 50 % of Total Responders” value worked out at 16.7% and the “PD % of Total Responders” value turned out to be 66.7%. The “% of total response” value is 2.3%, the “Average SFC per responder” value worked out at 1361 SFC, the Frequency of response is recorded as 11.3 and the “Total SFC per epitope” value came to 8164 SFC. Moreover, the “HC > 50 Total SFC” value (HC > 50, dominant epitopes) is recorded as 1770 SFC. In addition, under “dominant epitopes”, the “PD Total SFC” value is 6247 SFC.

“HVTQARMVSKSKDGTG (listed as Homo sapiens)”: the “PD/HC > 50 Ratio of % Responders” value came out at 5.0, the “PD/HC > 50 Ratio of Response” value was found to be 66.9, the “HC > 50 % of Total Responders” value is listed as 10.0% and the “PD % of Total Responders” value came out at 50.0%. In addition, the “% of total response” value is reported as 4.2%, the “Average SFC per responder” value was 1468 SFC, the Frequency of response was 18.9 and the “Total SFC per epitope” value came to 14677 SFC. In addition, the “HC > 50 Total SFC” value (HC > 50, dominant epitopes) is recorded as 133 SFC. Also, where the note is “dominant epitopes”, the “PD Total SFC” value turned out to be 8916 SFC.

On to “IDMVDSPQLATLADEV (listed as Homo sapiens) [Tau 16-mer, start 417]”, for which the “PD Total Responders” value worked out at 1, the “PD Total SFC” value is recorded as 173 SFC, the “Total Responders” value is reported as 1 and the “Total SFC” value is given as 173 SFC. The “HC < 35 Total Responders” value is on record as 0 and the “HC < 35 Total SFC” value came to 0 SFC. Under setting [1], the “HC > 50 Total Responders” value is 0 and the “HC > 50 Total SFC” value is on record as 0 SFC.

For the sequence IDMVDZPQLATLADEV, the “PD Total Responders” value is on record as 1, the “PD Total SFC” value amounted to 197 SFC, the “Total Responders” value came out at 5 and the “Total SFC” value stood at 1703 SFC. Further, the “HC < 35 Total Responders” value came to 2 and the “HC < 35 Total SFC” value came to 563 SFC. Under setting [1], the “HC > 50 Total Responders” value was determined as 2 and the “HC > 50 Total SFC” value was determined as 943 SFC.

Turning to “IKHVPGGGSVQIVYKP (listed as Homo sapiens) [Tau 16-mer, start 297]”, the “PD/HC > 50 Ratio of % Responders” value came to 1.3, the “PD/HC > 50 Ratio of Response” value is reported as 11.6, the “HC > 50 % of Total Responders” value was found to be 33.3% and the “PD % of Total Responders” value is on record as 44.4%. Besides, the “% of total response” value is listed as 3.4%, the “Average SFC per responder” value is given as 1319 SFC, the Frequency of response is 17.0 and the “Total SFC per epitope” value came to 11875 SFC. The “HC > 50 Total SFC” value (HC > 50, dominant epitopes) was found to be 737 SFC. Further, the “PD Total SFC” value (dominant epitopes) is given as 8565 SFC.

On to “KIGSLDNITHVPGGGN (listed as Homo sapiens) [Tau 16-mer, start 353]”, for which the “PD/HC > 50 Ratio of % Responders” value is recorded as “inf”, the “PD/HC > 50 Ratio of Response” value is “inf”, the “HC > 50 % of Total Responders” value stood at 0.0% and the “PD % of Total Responders” value is on record as 100.0%. Further, the “% of total response” value is listed as 1.2%, the “Average SFC per responder” value is on record as 4070 SFC, the Frequency of response is listed as 1.9 and the “Total SFC per epitope” value was 4070 SFC. Besides, the “HC > 50 Total SFC” value (HC > 50, dominant epitopes) was 0 SFC. The “PD Total SFC” value (dominant epitopes) amounted to 4070 SFC.
